From patent US20250263376A1, “(E)-N-CINNAMOYLAMINOALKANOLS WITH MELANOGENESIS INHIBITORY ACTIVITY” (Uniwersytet Jagiellonski, priority 2024, published 2025)

Tests used:
S. typhimurium TA1535 = experiment: Ames microplate test, TA1535;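 further: bacteria exposed 90 min at 37 °C in exposure medium, then 48 h in indicator medium in 384-well plates, yellow (revertant) wells counted per condition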
Method: (§3) The study used the Ames microplate test (Ames MPF™ Penta 2 by Xenometrix, Allschwil, Switzerland). Growth medium, exposure medium, indicator medium, positive controls, hepatic microsomal fraction, NADP, glucose-6-phosphate, Salmonella typhimurium and Escherichia coli strains were components of the purchased experimental kit. Bacteria were grown overnight in growth medium. They were then exposed to the test compound at the appropriate concentration in exposure medium without or with the rat microsomal fraction S9 in 24-well plates for 90 min at 37° C. with shaking. Then, indicator medium was added to the wells and pipetted into 384-well plates, which were incubated for 48 hours at 37° C. without shaking. Results were assessed by counting the wells in which the medium turned yellow for each experimental condition.

fibroblasts (BJ) = experiment: Safety, MTT test in fibroblasts; type: cell-based; details: 48 hours
Method: (§1) In order to test the safety of the compounds, both normal human cells were used: keratinocytes (HaCaT), fibroblasts (BJ), primary melanocytes that occur in the skin, as well as human cancer cells: the hepatocarcinoma line HepG2 and the neuroblastoma line SH-SY5Y, which are considered a model for the assessment of hepatocytotoxicity and neurocytotoxicity. The concentrations of the tested compounds in the range of […] were used in the studies. The cell lines used in the research were purchased from the American Type Culture Collection (ATCC) and were cultured in media recommended by the manufacturer with the addition of FBS and antibiotics in an incubator ensuring appropriate culture conditions, i.e. humidity, temperature and CO2 concentration. Cells were seeded into multiwell plates and incubated with the test compounds for 48 hours. After this time, MTT and LDH tests were performed to assess cell viability. The MTT test is based on the ability to transform the substrate: [3-(4,5-dimethyl-2-thiazolyl)-2,5-diphenyl-2H-tetrazolium bromide into a colored product only by living cells. The absorbance at 570 nm, which corresponds to the absorption maximum for the product, is directly proportional to cell viability. The LDH test is based on testing the activity of the enzyme lactate dehydrogenase in the culture medium, which is released from cells as a result of damage to the cell membrane, e.g. as a result of cell death. Triton X-100 was used as a positive control in the test. The determination is colorimetric, the substrate is transformed by the released enzyme into a colored product, an increase in absorbance indicates a larger amount of the released enzyme, and thus confirms greater damage to cell membranes. Tables 7 and 8 present the results obtained, which correspond to the viability of cells incubated with the compounds in relation to the viability of cells constituting a control sample, i.e. incubated with the solvent (DMSO) at the same concentration as in the case of the groups tested in the MTT test or in relation to the results obtained for the Triton X-100 positive control in the LDH test. They indicate that the compounds are safe at the concentrations tested.

S. typhimurium TA100 = experiment: Ames microplate test, TA100; type: cell-based, Salmonella typhimurium
Method: as §3

S. typhimurium TA1537 = experiment: Ames microplate test, TA1537; type: cell-based, Salmonella typhimurium
Method: (§2) Bacteria were grown overnight in growth medium.

hepatocarcinoma HepG2 = experiment: Safety, LDH test in HepG2; type: cell-based; details: 48 hours, vs Triton X-100
Method: as §1

keratinocytes (HaCaT) = experiment: Safety, MTT test in keratinocytes; type: cell-based; details: 48 hours
Method: as §1

primary melanocytes = experiment: Safety, LDH test in primary melanocytes; type: cell-based; details: 48 hours, vs Triton X-100
Method: as §1

E. coli WP2 = experiment: Ames microplate test, E. coli WP2;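 further: bacteria exposed to compound for 90 min at 37 °C in 24-well plates, then transferred with indicator medium to 384-well plates and incubated 48 h before yellow well counting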
Method: as §3

[1] = test system: reconstructed human epidermis containing melanocytes MelanoDerm MEL-300-B; experiment: Melanogenesis inhibition in reconstructed human epidermis containing melanocytes (MelanoDerm); type: cell-based; details: 14 days, MTT
Method: Melanogenesis Inhibition Studies in a Model of Reconstructed Human Epidermis Containing Melanocytes (MelanoDerm by Mattek).
The research was carried out on reconstructed human epidermis containing melanocytes MelanoDerm™ MEL-300-B from MatTek (Bratislava, Slovakia). The ratio of keratinocytes to melanocytes in the epidermis used is 10:1. Only medium purchased from the same manufacturer (EPI-100-NMM-113) was used to culture the epidermis during the experiments. Once the epidermis was obtained, it was transferred to 12-well plates containing 5 mL of medium/well. Plates were used to enable proper contact of the lower parts of the inserts with the substrate (so-called hanging-top plate). Solutions of the compounds were prepared immediately before their application. The solutions were applied to the inserts using a positive displacement pipette and then distributed using a sterile glass bulb headed Pasteur pipette. The application was repeated every 48 hours, a total of 7 applications were performed. Before the next application, each insert was rinsed with sterile DPBS and dried with a sterile cotton buds. The application was also accompanied by a change of the medium. […] The epidermis was cultured in an incubator ensuring appropriate humidity, temperature (37° C.) and CO2 concentration (5%).
The experiment was conducted for 14 days. After this time, the inserts were rinsed with DPBS and dried with a cotton swab. For the selected pool of inserts, tissue viability was assessed using the MTT (Thiazolyl Blue Tetrazolium bromide) test, the remaining ones were used to determine the amount of melanin. To assess viability, the inserts were transferred to 24-well plate containing 0.3 mL of DMEM medium with 1 mg/mL MTT and incubated for 3 hours in an incubator. The epidermis was then placed in 2 mL of isopropanol and the resulting formazan was extracted for 2 hours at room temperature. The absorbance of the samples was measured at 570 nm in a microplate reader and correlated with the absorbance of the control by the formula: % Viability=[OD (570 nm) for test compound/OD (570 nm) for control]×100. To determine the amount of melanin, the inserts were incubated in 5% sodium bicarbonate for 30 min, then dried and placed in 0.5 mL of Solvable™ reagent, which caused complete lysis of the epidermis. After heating at 95° C., the absorbance of the samples was measured at 405 nm in a microplate reader. On this basis, the reduction in the amount of melanin was calculated in relation to the control sample. The absorbance results were also correlated with a standard curve for synthetic melanin.

S. typhimurium TA98 = experiment: Ames microplate test, TA98; type: cell-based, Salmonella typhimurium
Method: as §2

O=C(/C=C/c1ccc(Cl)cc1)NCCCCCO [Compound A-111, (2E)-3-(4-chlorophenyl)-N-(5-hydroxypentyl)prop-2-enamide]
Increase in the number of yellow wells compared to the reference level, TA1535 (S. typhimurium TA1535; 0.5 mM, + S9): 0.58 | Increase in the number of yellow wells compared to the reference level, TA1535 (S. typhimurium TA1535; 0.5 mM, without S9): 0.55 | Increase in the number of yellow wells compared to the reference level, TA1535 (S. typhimurium TA1535; 1.0 mM, + S9): 0.35 | Increase in the number of yellow wells compared to the reference level, TA1535 (S. typhimurium TA1535; 1.0 mM, without S9): 0.18 | Increase in the number of yellow wells compared to the reference level, TA1535 (S. typhimurium TA1535; 2.0 mM, + S9): 0.23 | Increase in the number of yellow wells compared to the reference level, TA1535 (S. typhimurium TA1535; 2.0 mM, without S9): 1.65 | MTT, Fibroblasts (BJ) (fibroblasts (BJ); 100 μM): 99.88 ± 5.25 % of solvent control | MTT, Fibroblasts (BJ) (fibroblasts (BJ); 150 μM): 100.94 ± 3.37 % of solvent control | MTT, Fibroblasts (BJ) (fibroblasts (BJ); 200 μM): 98.94 ± 4.04 % of solvent control | MTT, Fibroblasts (BJ) (fibroblasts (BJ); 250 μM): 94.51 ± 5.03 % of solvent control | Increase in the number of yellow wells compared to the reference level, TA100 (S. typhimurium TA100; 0.5 mM, + S9): 0.97 | Increase in the number of yellow wells compared to the reference level, TA100 (S. typhimurium TA100; 0.5 mM, without S9): 0.74 | Increase in the number of yellow wells compared to the reference level, TA100 (S. typhimurium TA100; 1.0 mM, + S9): 0.47 | Increase in the number of yellow wells compared to the reference level, TA100 (S. typhimurium TA100; 1.0 mM, without S9): 0.39 | Increase in the number of yellow wells compared to the reference level, TA100 (S. typhimurium TA100; 2.0 mM, + S9): 0.67 | Increase in the number of yellow wells compared to the reference level, TA100 (S. typhimurium TA100; 2.0 mM, without S9): 0.42 | Increase in the number of yellow wells compared to the reference level, TA1537 (S. typhimurium TA1537; 0.5 mM, + S9): 0.27 | Increase in the number of yellow wells compared to the reference level, TA1537 (S. typhimurium TA1537; 0.5 mM, without S9): 0.80 | Increase in the number of yellow wells compared to the reference level, TA1537 (S. typhimurium TA1537; 1.0 mM, + S9): 0.45 | Increase in the number of yellow wells compared to the reference level, TA1537 (S. typhimurium TA1537; 1.0 mM, without S9): 0.54 | Increase in the number of yellow wells compared to the reference level, TA1537 (S. typhimurium TA1537; 2.0 mM, + S9): 0.27 | Increase in the number of yellow wells compared to the reference level, TA1537 (S. typhimurium TA1537; 2.0 mM, without S9): 0.54 | LDH, Hepatocarcinoma HepG2 (hepatocarcinoma HepG2; 100 μM): 4.90 percentage of positive control | LDH, Hepatocarcinoma HepG2 (hepatocarcinoma HepG2; 150 μM): 4.73 percentage of positive control | LDH, Hepatocarcinoma HepG2 (hepatocarcinoma HepG2; 200 μM): 5.48 percentage of positive control | LDH, Hepatocarcinoma HepG2 (hepatocarcinoma HepG2; 250 μM): 9.75 percentage of positive control | MTT, Keratinocytes (HaCaT) (keratinocytes (HaCaT); 100 μM): 101.68 ± 3.45 % of solvent control | MTT, Keratinocytes (HaCaT) (keratinocytes (HaCaT); 150 μM): 101.56 ± 1.94 % of solvent control | MTT, Keratinocytes (HaCaT) (keratinocytes (HaCaT); 200 μM): 101.04 ± 2.77 % of solvent control | MTT, Keratinocytes (HaCaT) (keratinocytes (HaCaT); 250 μM): 91.57 ± 2.10 % of solvent control | LDH, Primary melanocytes (primary melanocytes; 100 μM): 3.31 percentage of positive control | LDH, Primary melanocytes (primary melanocytes; 150 μM): 4.95 percentage of positive control | LDH, Primary melanocytes (primary melanocytes; 200 μM): 13.38 percentage of positive control | LDH, Primary melanocytes (primary melanocytes; 250 μM): 18.41 percentage of positive control | Increase in the number of yellow wells compared to the reference level, E. coli WP2 (E. coli WP2; 0.5 mM, + S9): 0.62 | Increase in the number of yellow wells compared to the reference level, E. coli WP2 (E. coli WP2; 0.5 mM, without S9): 1.46 | Increase in the number of yellow wells compared to the reference level, E. coli WP2 (E. coli WP2; 1.0 mM, + S9): 0.71 | Increase in the number of yellow wells compared to the reference level, E. coli WP2 (E. coli WP2; 1.0 mM, without S9): 1.10 | Increase in the number of yellow wells compared to the reference level, E. coli WP2 (E. coli WP2; 2.0 mM, + S9): 0.98 | Increase in the number of yellow wells compared to the reference level, E. coli WP2 (E. coli WP2; 2.0 mM, without S9): 1.10 | Viability [% control, mean ± SD] ([1]; 1.0% in 50% PEG (10 μL)): 101.45 ± 6.45 % control | Viability [% control, mean ± SD] ([1]; 1.0% in 50% PEG (25 μL)): 85.67 ± 7.25 % control | Viability [% control, mean ± SD] ([1]; 2.0% in 50% PEG (25 μL)): 106.64 ± 7.78 % control | Increase in the number of yellow wells compared to the reference level, TA98 (S. typhimurium TA98; 0.5 mM, + S9): 1.50 | Increase in the number of yellow wells compared to the reference level, TA98 (S. typhimurium TA98; 0.5 mM, without S9): 0.7 | Increase in the number of yellow wells compared to the reference level, TA98 (S. typhimurium TA98; 1.0 mM, + S9): 0.83 | Increase in the number of yellow wells compared to the reference level, TA98 (S. typhimurium TA98; 1.0 mM, without S9): 0.44 | Increase in the number of yellow wells compared to the reference level, TA98 (S. typhimurium TA98; 2.0 mM, + S9): 1.50 | Increase in the number of yellow wells compared to the reference level, TA98 (S. typhimurium TA98; 2.0 mM, without S9): 1.00
